Patent publication US12440496B2, “Natriuretic peptide receptor a agonists useful for the treatment of cardiometabolic diseases, kidney disease and diabetes” (Merck Sharp & Dohme LLC, priority 2019, dated 2025)
Structures can show the parent of a compound that is named as a salt.

The molecules below were run against T1, hNPRA (Homo sapiens, UniProt P16066) (assay: NPRA Functional Cell Assay (cGMP HTRF, NPRA HEK JumpIn stable cells)). Settings: cGMP production, 1 hour at 37° C., 10-point dose response.
T1 construct: expressed in transfected cells
T1 sequence (P16066 33-1061): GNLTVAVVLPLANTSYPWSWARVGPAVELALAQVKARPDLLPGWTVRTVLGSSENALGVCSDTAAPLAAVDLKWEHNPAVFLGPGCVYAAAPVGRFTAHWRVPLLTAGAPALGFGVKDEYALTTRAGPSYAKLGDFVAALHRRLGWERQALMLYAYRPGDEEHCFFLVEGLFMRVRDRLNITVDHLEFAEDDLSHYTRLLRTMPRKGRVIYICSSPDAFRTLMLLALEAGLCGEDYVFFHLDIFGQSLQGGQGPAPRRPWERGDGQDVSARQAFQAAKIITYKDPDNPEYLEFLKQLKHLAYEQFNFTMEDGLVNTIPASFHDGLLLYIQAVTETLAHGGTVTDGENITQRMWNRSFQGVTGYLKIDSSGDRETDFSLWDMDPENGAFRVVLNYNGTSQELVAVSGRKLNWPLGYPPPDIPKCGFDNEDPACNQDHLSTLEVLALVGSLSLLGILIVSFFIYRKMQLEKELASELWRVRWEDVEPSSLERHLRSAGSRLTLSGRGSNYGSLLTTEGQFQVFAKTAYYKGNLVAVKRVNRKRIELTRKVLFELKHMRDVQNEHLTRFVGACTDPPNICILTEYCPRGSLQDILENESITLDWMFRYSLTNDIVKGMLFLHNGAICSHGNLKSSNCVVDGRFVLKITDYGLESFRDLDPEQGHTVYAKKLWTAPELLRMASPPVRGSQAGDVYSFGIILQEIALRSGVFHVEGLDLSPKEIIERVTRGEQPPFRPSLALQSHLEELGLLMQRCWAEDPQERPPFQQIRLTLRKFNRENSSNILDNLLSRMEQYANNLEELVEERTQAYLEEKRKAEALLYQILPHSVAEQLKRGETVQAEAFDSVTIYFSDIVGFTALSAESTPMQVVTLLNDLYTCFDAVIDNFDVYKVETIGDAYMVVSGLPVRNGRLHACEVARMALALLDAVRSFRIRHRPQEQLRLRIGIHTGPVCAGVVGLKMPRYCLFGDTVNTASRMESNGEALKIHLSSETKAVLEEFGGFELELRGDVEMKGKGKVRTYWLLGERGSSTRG
Assay type: cell-based
Method in brief: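 cGMP HTRF read-out after 1 hour compound treatment at 37° C. of human NPRA-expressing HEK JumpIn cells, 1500 cells/well, in buffer with phosphodiesterase inhibitors IBMX and RO20 (100 uM each). Signal converted to [cGMP] by calibration curve; EC50s fitted by 4-parameter logistic; 50 nM h-ANP as positive response.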
Molecule CN(C)CC[C@@H](NC(=O)c1nc2cc3c(nc2s1)CC[C@H](C(C)(C)C)C3)c1ccc(-c2ccc(=O)[nH]c2)cc1 (racemic) [Example 76, rac-(7S)-7-tert-butyl-N-[rac-(1R)-3-(dimethylamino)-1-[4-(6-oxo-1H-pyridin-3-yl)phenyl]propyl]-5,6,7,8-tetrahydrothiazolo[5,4-b]quinoline-2-carboxamide] has an EC50 of 665 nM. Work on CC1(C)CN(CC[C@@H](NC(=O)c2nc3cc4c(nc3s2)CC[C@H](C(C)(C)C)C4)c2ccc(-c3ccc(=O)[nH]c3)cc2)C1 (racemic) [Example 77, rac-(7S)-7-tert-butyl-N-[rac-(1R)-3-(3,3-dimethylazetidin-1-yl)-1-[4-(6-oxo-1H-pyridin-3-yl)phenyl]propyl]-5,6,7,8-tetrahydrothiazolo[5,4-b]quinoline-2-carboxamide] yielded an EC50 of 681 nM. For CC(C)(C)[C@H]1CCc2nc3sc(C(=O)N[C@H](CCN4CCC(O)C4)c4ccc(-c5ccc(=O)[nH]c5)cc4)nc3cc2C1 (mixture of isomers) [Example 78, rac-(7S)-7-tert-butyl-N-[rac-(1R)-3-(3-hydroxypyrrolidin-1-yl)-1-[4-(6-oxo-1H-pyridin-3-yl)phenyl]propyl]-5,6,7,8-tetrahydrothiazolo[5,4-b]quinoline-2-carboxamide], the EC50 was 692 nM. Molecule CC(C)(C)[C@H]1CCc2nc3sc(C(=O)N[C@H](CCN4CCC(O)CC4)c4ccc(-c5ccc(=O)[nH]c5)cc4)nc3cc2C1 (racemic) [Example 79, rac-(7S)-7-tert-butyl-N-[rac-(1R)-3-(4-hydroxypiperidin-1-ium-1-yl)-1-[4-(6-oxo-1H-pyridin-3-yl)phenyl]propyl]-5,6,7,8-tetrahydrothiazolo[5,4-b]quinoline-2-carboxamide; formate] has an EC50 of 270 nM. Molecule CC(C)(C)[C@H]1CCc2nc3sc(C(=O)N[C@H](CCN4CCC(O)CC4)c4ccc(-c5cn[nH]c5)cc4)nc3cc2C1 (racemic) [Example 80, rac-(7S)-7-tert-butyl-N-[rac-(1R)-3-(4-hydroxypiperidin-1-ium-1-yl)-1-[4-(1H-pyrazol-4-yl)phenyl]propyl]-5,6,7,8-tetrahydrothiazolo[5,4-b]quinoline-2-carboxamide; formate] has an EC50 of 753 nM. Molecule Cn1nccc1-c1ccc([C@@H](CCN2CCC(O)CC2)NC(=O)c2nc3cc4c(nc3s2)CC[C@H](C(C)(C)C)C4)cc1 (racemic) [Example 81, rac-(7S)-7-tert-butyl-N-[rac-(1R)-3-(4-hydroxypiperidin-1-ium-1-yl)-1-[4-(2-methylpyrazol-3-yl)phenyl]propyl]-5,6,7,8-tetrahydrothiazolo[5,4-b]quinoline-2-carboxamide; formate] has an EC50 of 914 nM. CC(C)(C)[C@H]1CCc2nc3sc(C(=O)N[C@H](CCN4CCC(O)CC4)c4ccc(-n5ccnc5)cc4)nc3cc2C1 (racemic) [Example 83, rac-(7S)-7-tert-butyl-N-[rac-(1R)-3-(4-hydroxy-piperidin-1-ium-1-yl)-1-(4-imidazol-1-ylphenyl)propyl]-5,6,7,8-tetrahydro-thiazolo[5,4-b] quinoline-2-carboxamide; 2,2,2-trifluoroacetate] showed an EC50 of 681 nM. In the case of CC(C)(C)[C@H]1CCc2nc3sc(C(=O)N[C@H](CCN4CCC(O)CC4)c4ccc(N5CCOC5=O)cc4)nc3cc2C1 (racemic) [Example 85], the EC50 is reported as 1020 nM. CN(C)CC[C@@H](NC(=O)c1nc2cc3c(nc2s1)CC[C@H](C(C)(C)C)C3)c1cccc(C(=O)NC2CN(C)C2)c1 (racemic) [Example 86, rac-(7S)-7-tert-butyl-N-[rac-(1R)-3-(dimethyl-amino)-1-[3-[(1-methylazetidin-3-yl)carbamoyl]phenyl]propyl]-5,6,7,8-tetrahydrothiazolo[5,4-b] quinoline-2-carboxamide] was tested, and the EC50 was 183 nM. CN(C)CC[C@@H](NC(=O)c1nc2cc3c(nc2s1)CC[C@H](C(C)(C)C)C3)c1cccc(C(=O)N[C@H]2CCN(C)C2)c1 (racemic) [Example 87, rac-(7S)-7-tert-butyl-N-[rac-(1R)-3-(dimethyl-amino)-1-[3-[rac-(3S)-1-methylpyrrolidin-3-yl]carbamoyl]phenyl]propyl]-5,6,7,8-tetrahydrothiazolo[5,4-b] quinoline-2-carboxamide] showed an EC50 of 207 nM. CN(C)CC[C@@H](NC(=O)c1nc2cc3c(nc2s1)CC[C@H](C(C)(C)C)C3)c1cccc(C(=O)NCC2CCN(C)C2)c1 (mixture of isomers) [Example 88, rac-(7S)-7-tert-butyl-N-[rac-(1R)-3-(dimethylamino)-1-[3-[(1-methylpyrrolidin-3-yl)methylcarbamoyl]phenyl]propyl]-5,6,7,8-tetrahydrothiazolo[5,4-b] quinoline-2-carboxamide] was tested, and the EC50 was 230 nM. For CN(C)CC[C@@H](NC(=O)c1nc2cc3c(nc2s1)CC[C@H](C(C)(C)C)C3)c1cccc(C(=O)N[C@H]2CCNC2)c1 (racemic) [Example 89, rac-(7S)-7-tert-butyl-N-[rac-(1R)-3-(dimethylamino)-1-[3-[rac-(3S)-pyrrolidin-3-yl]carbamoyl]phenyl] propyl]-5,6,7,8-tetrahydrothiazolo[5,4-b] quinoline-2-carboxamide], the EC50 was 230 nM. Molecule CN(C)CC[C@@H](NC(=O)c1nc2cc3c(nc2s1)CC[C@H](C(C)(C)C)C3)c1cccc(C(=O)N[C@@H]2CNC[C@H]2O)c1 (racemic) [Example 90, rac-(7S)-7-tert-butyl-N-[rac-(1R)-3-(dimethylamino)-1-[3-[[rac-(3R,4R)-4-hydroxypyrrolidin-3-yl]carbamoyl]phenyl]propyl]-5,6,7,8-tetrahydrothiazolo[5,4-b] quinoline-2-carboxamide] has an EC50 of 271 nM. CN(C)CC[C@@H](NC(=O)c1nc2cc3c(nc2s1)CC[C@H](C(C)(C)C)C3)c1cccc(C(=O)N2CC3(CNC3)C2)c1 (racemic) [Example 91, rac-(7S)-7-tert-butyl-N-[rac-(1R)-1-[3-(2,6-diazaspiro[3.3]heptane-2-carbonyl)phenyl]-3-(dimethylamino)propyl]-5,6,7,8-tetrahydrothiazolo [5,4-b]quinoline-2-carboxamide] showed an EC50 of 292 nM. CN(C)CC[C@@H](NC(=O)c1nc2cc3c(nc2s1)CC[C@H](C(C)(C)C)C3)c1cccc(C(=O)NCCN)c1 (racemic) [Example 92, rac-(7S)-7-tert-butyl-N-[rac-(1R)-1-[3-(2-aminoethylcarbamoyl)phenyl]-3-(dimethyl-amino)propyl]-5,6,7,8-tetrahydrothiazolo[5,4-b] quinoline-2-carboxamide] gave an EC50 of 348 nM. In the case of CN(C)CC[C@@H](NC(=O)c1nc2cc3c(nc2s1)CC[C@H](C(C)(C)C)C3)c1cccc(C(=O)N2CC(C)(O)C2)c1 (racemic) [Example 93, rac-(7S)-7-tert-butyl-N-[rac-(1R)-3-(dimethylamino)-1-[3-(3-hydroxy-3-methyl-azetidine-1-carbonyl)phenyl]propyl]-5,6,7,8-tetrahydrothiazolo[5,4-b] quinoline-2-carboxamide], the EC50 is reported as 527 nM. Molecule CN(C)CC[C@@H](NC(=O)c1nc2cc3c(nc2s1)CC[C@H](C(C)(C)C)C3)c1cccc(C(=O)N2CC(N)C2)c1 (racemic) [Example 94, rac-(7S)-7-tert-butyl-N-[rac-(1R)-1-[3-(3-aminoazetidine-1-carbonyl)phenyl]-3-(dimethylamino)propyl]-5,6,7,8-tetrahydrothiazolo [5,4-b]quinoline-2-carboxamide] has an EC50 of 566 nM. With CN(C)CC[C@@H](NC(=O)c1nc2cc3c(nc2s1)CC[C@H](C(C)(C)C)C3)c1cccc(C(=O)NCCO)c1 (racemic) [Example 95, rac-(7S)-7-tert-butyl-N-[rac-(1R)-3-(dimethylamino)-1-[3-(2-hydroxyethylcarbamoyl)phenyl]propyl]-5,6,7,8-tetrahydrothiazolo[5,4-b] quinoline-2-carboxamide] the EC50 was 690 nM. In the case of CN(C)CC[C@@H](NC(=O)c1nc2cc3c(nc2s1)CC[C@H](C(C)(C)C)C3)c1cccc(C(=O)N2CCOCC2)c1 (racemic) [Example 96, rac-(7S)-7-tert-butyl-N-[rac-(1R)-3-(dimethylamino)-1-[3-(morpholine-4-carbonyl)phenyl]propyl]-5,6,7,8-tetrahydrothiazolo[5,4-b] quinoline-2-carboxamide], the EC50 is reported as 1020 nM. CN(C)CC[C@@H](NC(=O)c1nc2cc3c(nc2s1)CC[C@H](C(C)(C)C)C3)c1cccc(C(=O)N2CCNCC2)c1 (racemic) [Example 97, rac-(7S)-7-tert-butyl-N-[rac-(1R)-3-(dimethyl-amino)-1-[3-(piperazine-1-carbonyl)phenyl]propyl]-5,6,7,8-tetrahydrothiazolo[5,4-b] quinoline-2-carboxamide] showed an EC50 of 1380 nM.
